According to patent publication US20100048617A1, “COMPOUNDS” (SmithKline Beecham Corp., priority 2006, published 2010):
Counter-ions that a name gives are not always drawn.

Molecular target: T1, SCD (SCD-containing rat microsomes) (Rattus norvegicus, UniProt P07308)
T1 construct: SCD-containing rat microsomes (2 μg protein); from tissue
T1 sequence (P07308 1-358): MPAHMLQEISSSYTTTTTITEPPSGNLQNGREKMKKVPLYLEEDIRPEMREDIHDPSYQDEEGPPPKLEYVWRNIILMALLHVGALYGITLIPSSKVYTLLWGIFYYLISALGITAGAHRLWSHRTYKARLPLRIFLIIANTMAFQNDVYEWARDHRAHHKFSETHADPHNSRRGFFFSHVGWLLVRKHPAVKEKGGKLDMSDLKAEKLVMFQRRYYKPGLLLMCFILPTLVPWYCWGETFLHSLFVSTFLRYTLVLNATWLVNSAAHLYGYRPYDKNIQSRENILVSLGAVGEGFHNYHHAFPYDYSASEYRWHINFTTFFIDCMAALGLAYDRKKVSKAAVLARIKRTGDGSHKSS
Assay: in vitro assay for SCD activity based on production of [3H]H2O from [9,10-3H] stearoyl Coenzyme A
Type: biochemical
Settings: SCD-containing rat microsomes (2 μg protein), substrate 1 μM, 6 min incubation, 5 min preincubation with compound; read-out: average pIC50 value (converted)
Experimental: The compounds of the present invention may be analysed in vitro for SCD activity using an assay based on the production of [^3H]H2O, which is released during the enzyme-catalyzed generation of the monounsaturated fatty acyl CoA product. The assay is performed in a 96-well filtration plates. The titrated substrate used in the assay is the [9,10-^3H] stearoyl Coenzyme A. After incubation for 6 minutes of SCD-containing rat microsomes (2 μg protein) and substrate (1 μM), the labelled fatty acid acyl-CoA species and microsomes are absorbed with charcoal and separated from [^3H]H2O by centrifugation. The formation of [^3H]H2O is used as a measure of SCD activity. Compounds at concentrations starting at 10 μM to 0.1 nM or vehicle (DMSO) are preincubated for 5 minutes with the microsomes before addition of the substrate. The concentration-responses are fitted with sigmoidal curves to obtain IC50 values.

Row | IC50 [µM] | SMILES
1 | > 10 | COc1ccc(OCC(C)C)c(Cn2nc(C(=O)Nc3ccc4c(c3)CCNC4)cc2C)c1 [5-methyl-1-({5-(methyloxy)-2-[(2-methylpropyl)oxy]phenyl}methyl)-N-(1,2,3,4-tetrahydro-6-isoquinolinyl)-1H-pyrazole-3-carboxamide hydrochloride]
2 | 3.16 to 10 | COc1ccc(Cl)cc1Cn1nc(C(=O)Nc2ccc3c(c2)CCNC3)cc1C [1-{[5-chloro-2-(methyloxy)phenyl]methyl}-5-methyl-N-(1,2,3,4-tetrahydro-6-isoquinolinyl)-1H-pyrazole-3-carboxamide hydrochloride]
